Reference: patent US8951972B2, “FGFR1 extracellular domain combination therapies for lung cancer” (Five Prime Therapeutics, Inc., priority 2010, dated 2015)

Tested on: A549 Non-Small Cell Lung Cancer (NSCLC) Xenograft
Experiment: A549 non-small cell lung cancer (NSCLC) xenograft model, tumor volume
Assay type: in vivo, SCID mice
Experimental: Six weeks old female SCID mice were purchased from Charles River Laboratories (Wilmington, Mass.) and were acclimated for 1 week before the start of the study. […] The cells were implanted subcutaneously over the right flank of the mice at 5×10^6 cells/100 μl/mouse. One day after tumor implantation, mice were randomized according to body weight at 10 mice per group.
The tumor volume and body weight of the mice were monitored twice a week throughout each study.
The tumor volume of each group of mice at the end of each study was analyzed by one-way ANOVA followed by Tukey's test.
Cisplatin was purchased from Sigma-Aldrich (St. Louis, Mo.; Cat. No. P4394), formulated in 0.9% saline, and administered i.p. at 3.5 mg/kg ([…]) once per week for six weeks. Saline was used as negative control and was administered i.p. at 100 μl per mouse twice a week for six weeks.
On day 42, when the average tumor volume in the vehicle group reached 1300 mm^3, the mice were euthanized by isoflurane inhalation and cervical dislocation.
FGFR1-ECD.339-Fc was formulated in 0.9% Saline for Injection USP at 3 mg/ml. […] FGFR1-ECD.339-Fc was administered intraperitoneally (i.p.) at 15 mg/kg twice per week for 5 weeks. Paclitaxel was administered i.p. at 18 mg/kg on days 8, 12, and 15.
When the average tumor volume in vehicle control group reached ˜500 mm^3, the mice were euthanized by isoflurane inhalation and cervical dislocation.
FGFR1-ECD.339-Fc was formulated in 0.9% Saline for Injection USP at 3 mg/ml. 5-FU was purchased from Sigma-Aldrich (St. Louis, Mo.; Cat. No. F6627) and was initially dissolved in dimethyl sulfoxide (DMSO, Sigma-Aldrich, St. Louis, Mo.; Cat. No. D8418-50) at the concentration of 50 mg/ml as a stock solution. The stock solution was further diluted in 0.9% Sodium Chloride Injection USP to 6.6 mg/ml (for 33 mg/kg dosing). FGFR1-ECD.339-Fc was administered intraperitoneally (i.p.) at 15 mg/kg twice per week for four weeks. 5-FU was administered i.p. at 33 mg/kg twice a week for three weeks.
Mice were euthanized on day 31 by isoflurane inhalation and cervical dislocation.
FGFR1-ECD.339-Fc was formulated in PBS at 3 mg/ml and administered intraperitoneally (i.p.) at 15 mg/kg (300 μg/100 μl/mouse) twice a week for four weeks. Docetaxel was administered i.p. at 3 mg/kg or 10 mg/kg twice per week for four weeks.
Mice in the albumin control group were euthanized on day 32 by isoflurane inhalation and cervical dislocation when the average tumor volume in the group reached 1000 mm^3.

[1] = day 42, FGFR1-ECD.339-Fc 20 mg/kg i.p. 2x/wk x 6 wks, cisplatin 3.5 mg/kg i.p. 1x/wk x 6 wks

Which “Fractional tumor volume (FTV), each treatment alone” value (day 31, FGFR1-ECD.339-Fc 15 mg/kg i.p. 2x/wk x 4 wks, 5-FU 33 mg/kg i.p. 2x/wk x 3 wks) does the source give for “FGFR1-ECD.339-Fc: human FGFR1 extracellular domain ending at amino acid 339 fused to an Fc; SEQ ID NO: 6 (mature form)” here?
Its value is 0.84.

And the “Fractional tumor volume (FTV), each treatment alone” value (day 31, FGFR1-ECD.339-Fc 15 mg/kg i.p. 2x/wk x 5 wks, paclitaxel 18 mg/kg i.p. days 8, 12, 15)?
The value was 0.84.

And the “Fractional tumor volume (FTV), each treatment alone” value (day 32, FGFR1-ECD.339-Fc 15 mg/kg i.p. 2x/wk x 4 wks, docetaxel 3 mg/kg i.p. 2x/wk x 4 wks)?
The value was 0.54.

What about the “Fractional tumor volume (FTV), each treatment alone” value (day 32, FGFR1-ECD.339-Fc 15 mg/kg i.p. 2x/wk x 4 wks, docetaxel 10 mg/kg i.p. 2x/wk x 4 wks) of the same substance?
The value was 0.54.

And the “Fractional tumor volume (FTV), each treatment alone” value (day 38, FGFR1-ECD.339-Fc 15 mg/kg i.p. 2x/wk x 5 wks, paclitaxel 18 mg/kg i.p. days 8, 12, 15)?
Its value is 0.89.

And the “Fractional tumor volume (FTV), each treatment alone” value (day 39, FGFR1-ECD.339-Fc 15 mg/kg i.p. 2x/wk (start day 1), vincristine 1 mg/kg i.p. days 8, 15, 22)?
The value was 0.50.

And the “Mean Tumor volume mm^3(±SD)” value [1]?
Its value is 807 (±431) mm^3.

And the “Tumor growth inhibition (%)” value [1]?
Its value is 39%.

And the “Fractional tumor volume (FTV) relative to control, each treatment alone” value (day 42, FGFR1-ECD.339-Fc 20 mg/kg, cisplatin 3.5 mg/kg)?
Its value is 0.60.

And the “Fractional tumor volume (FTV), each treatment alone” value (day 46, FGFR1-ECD.339-Fc 15 mg/kg i.p. 2x/wk (start day 1), vincristine 1 mg/kg i.p. days 8, 15, 22)?
Its value is 0.40.

And the “Fractional tumor volume (FTV), each treatment alone” value (day 70, FGFR1-ECD.339-Fc 20 mg/kg i.p. 2x/wk (start day 19), vincristine 1.5 mg/kg i.p. days 27, 34, 41)?
The value was 0.71.
